# Test results taken from patent US7414064B2, “4-(3,3-dihalo-allyloxy) phenoxy alkyl derivatives” (Syngenta Crop Protection, Inc., priority 2002, dated 2008).
# Legend:
# [1] = test system: Heliothis virescens; experiment: Action against Heliothis virescens caterpillars (sprayed soybean plants); type: in vivo; details: 144 h, 400 ppm spray mixture, caterpillars in the first stage, evaluation 6 days later, read-out: percentage reduction in population and percentage reduction in feeding damage (% activity)
# Experimental: Young soybean plants are sprayed with an aqueous emulsion spray mixture comprising 400 ppm of test compound. After the spray-coating has dried, the soybean plants are populated with 10 caterpillars of Heliothis virescens in the first stage and placed in a plastics container. Evaluation is made 6 days later. The percentage reduction in population and the percentage reduction in feeding damage (% activity) are determined by comparing the number of dead caterpillars and the feeding damage on the treated plants with that on the untreated plants.
Compound,inhibition at 400 ppm [1] [%],melting point [°C]
COC(=O)Nc1ccc(OCCCOc2c(Cl)cc(OCC=C(Cl)Cl)cc2Cl)cc1 [Compound 1.3],> 80,–
CCOC(=O)Nc1ccc(OCCCOc2c(Cl)cc(OCC=C(Cl)Cl)cc2Cl)cc1 [Compound 1.4],> 80,–
"CC(C)(C)OC(=O)Nc1ccc(OCCCOc2c(Cl)cc(OCC=C(Cl)Cl)cc2Cl)cc1 [Compound 1.6, (4-{3-[2,6-Dichloro-4-(3,3-dichloroallyloxy)-phenoxy]-propoxy}-phenyl)-carbamic acid tert-butyl ester]",> 80,–
C#CCOC(=O)Nc1ccc(OCCCOc2c(Cl)cc(OCC=C(Cl)Cl)cc2Cl)cc1 [Compound 1.10],> 80,–
O=C(Nc1ccc(OCCCOc2c(Cl)cc(OCC=C(Cl)Cl)cc2Cl)cc1)c1ccccc1Cl [Compound 1.19],–,107 to 111
Cc1ccccc1C(=O)Nc1ccc(OCCCOc2c(Cl)cc(OCC=C(Cl)Cl)cc2Cl)cc1 [Compound 1.20],–,89 to 92
O=C(Nc1ccc(OCCCOc2c(Cl)cc(OCC=C(Cl)Cl)cc2Cl)cc1)c1ccccc1Br [Compound 1.21],–,112 to 114
O=C(Nc1ccc(OCCCOc2c(Cl)cc(OCC=C(Cl)Cl)cc2Cl)cc1)c1c(F)cccc1F [Compound 1.22],–,95 to 97
O=C(Nc1ccc(OCCCOc2c(Cl)cc(OCC=C(Cl)Cl)cc2Cl)cc1)c1ccc(F)cc1F [Compound 1.23],–,89 to 91
O=C(Nc1ccc(OCCCOc2c(Cl)cc(OCC=C(Cl)Cl)cc2Cl)cc1)c1ccccc1C(F)(F)F [Compound 1.24],–,118 to 121
O=C(Nc1ccc(OCCCOc2c(Cl)cc(OCC=C(Cl)Cl)cc2Cl)cc1)c1ccco1 [Compound 1.25],–,108 to 113
O=C(Nc1ccc(OCCCOc2c(Cl)cc(OCC=C(Cl)Cl)cc2Cl)cc1)c1cccs1 [Compound 1.26],–,83 to 90
